The values that follow come from patent publication US20250152688A1 (priority 2021, published 2025).

Entries after “also recorded” stand apart in the source; their conditions may differ. Like-named read-outs stand apart in the source and are kept apart here.

For experiment [1], the system named is peripheral blood mononuclear cells (PMBCs). Format: cell-based, human.
Experiment [2] concerns T-cell clones derived from patients that responded to UV1 vaccination. Format: cell-based, human. As to conditions: T-cell clones from UV1 responders tested with overlapping 14-mer peptides.
In experiment [3] the test system is peripheral blood mononuclear cells (PBMCs). Format: in vivo, human. As to conditions: for Patients with immune response against the peptide / UV1 mix: 51 evaluable patients vaccinated with UV1 (NSCLC, prostate cancer, malignant melanoma); for Number of patients that recognised this one peptide only / Responding patients / evaluable patients: patients vaccinated with UV1; for Responding patients / evaluable patients: response against the labelled peptide / mix.

For a further experiment, the system named is C57BL/6 mice. Format: in vivo. As to conditions: 1 nmol SC 3 times, 1 week intervals, blood 9 days post last administration.
Experiment [4] relates to HLA-A2/DR1 transgenic mice. Format: in vivo.
In another experiment the test system is vaccinated individuals. To be noted: reported in Bernhardt 2006, Inderberg-Suso 2012, Kyte 2011; cited from earlier work.
The subject of experiment [5] is B6.129S2-H2-Ab1tm1GruTg(HLADRA/H2-Ea,HLA-DRB1*0401/H2-Eb)1Kito strain mice. Format: in vivo. To be noted: HLA-DR4 mice.
In experiment [6] the test system is J76 cells transfected with UT1, a TCR specific for SEQ ID NO: 1. Format: cell-based, human. To be noted: 0.5, 1.5 and 5 μM (conjugates in second experiment 0.5, 1.5 and 3 μM); 24 hours; EBV cells as APC.
Setting [7] is: Vaccination GV1001 + DC (n = 4 + 3).

In the case of LYFVKVDVTGAYDTI [Conjugate 727], the “No. of positive patients” value in experiment [1] is listed as 5. In addition, the “T-cell responses to the individual peptide (patients), counted for SEQ ID NO: 118” value (“T-cell responses … for SEQ ID NO: 118” below) came to 2 in experiment [1] (Vaccination DC (n = 3)), 3 in experiment [1] (Vaccination GV1001 (n = 4)) and 5 in experiment [1] (setting [7]).
“RRPGLLGASVLGLD (listed as Homo sapiens) [SEQ ID NO: 23]”: the “HLA Class II allele, T-cell clone recognising the peptide” value (“HLA Class II allele” below) in experiment [2] is “DQ7, clone 8,10”.
Still for that read-out and setting: with “ARRPGLLGASVLGL (listed as Homo sapiens) [SEQ ID NO: 22]” the entry was “DQ7, clone 8,10”.
As to “VLNYERARRPGLIG (VLNYERARRPGLLG; listed as Homo sapiens) [SEQ ID NO: 16]”, the “HLA Class II allele” value in experiment [2] is “DR7, clone 15, p5-clone109”.
Take “LYFVKVDVTGAYDTIPQDRLTRVIASIIKP (listed as Homo sapiens) [SEQ ID NO: 118]”: in experiment [1] (GV1001 (n=4) + DC (n=3) vaccinated patients), the “Total of positive patients over peptides sharing at least 8 amino acids with the polypeptide” value is recorded as “Total = 9”. In addition, the “SUM of T-cell responses to peptides embedded in the polypeptide” value in experiment [1] (Vaccination DC (n = 3)) turned out to be 4; in experiment [1] (Vaccination GV1001 (n = 4)), 5; in experiment [1] (setting [7]), 9.
Turning to “ERARRPGLLGASVL (listed as Homo sapiens) [SEQ ID NO: 20]”, the “HLA Class II allele” value in experiment [2] is given as “DQ7, clone 8,10”.
With “ALFSVLNYERARRP (listed as Homo sapiens) [SEQ ID NO: 12]”, the “HLA Class II allele” value in experiment [2] was “DR12, clone 44, 38, 6”.
As to “NYERARRPGLLGAS (listed as Homo sapiens) [SEQ ID NO: 18]”, in experiment [2], the “HLA Class II allele” value is given as “p5-clone 109; also recorded: DQ7, clone 8”.
Turning to RPALLTSRLRFIPKP [Conjugate 714], in experiment [1], the “No. of positive patients” value came to 7. Also, the “T-cell responses to the individual peptide (patients), counted for GV1001” value was found to be 3 in experiment [1] (Vaccination DC (n = 3)), 4 in experiment [1] (Vaccination GV1001 (n = 4)) and 7 in experiment [1] (setting [7]). Further, the figures for the “T-cell responses to the individual peptide (patients), counted for SEQ ID NO: 116” value (“T-cell responses … for SEQ ID NO: 116” for short) in experiment [1] (Vaccination DC (n = 3)), in experiment [1] (Vaccination GV1001 (n = 4)) and in experiment [1] (setting [7]) were 3, 4 and 7, respectively.
For the substance ELYFVKVDVEGAYDT [Conjugate 726], in experiment [1], the “No. of positive patients” value is listed as 2. The “T-cell responses … for SEQ ID NO: 118” value was 1 in experiment [1] (Vaccination DC (n = 3)), 1 in experiment [1] (Vaccination GV1001 (n = 4)) and 2 in experiment [1] (setting [7]).
In the case of TSRLRFIPKPDGLRP [Conjugate 730], the “No. of positive patients” value in experiment [1] is reported as 5. Moreover, the figures for the “T-cell responses to the individual peptide (patients), counted for GV1001” value in experiment [1] (Vaccination DC (n = 3)), in experiment [1] (Vaccination GV1001 (n = 4)) and in experiment [1] (setting [7]) were 2, 3 and 5, respectively. The “T-cell responses … for SEQ ID NO: 116” value in experiment [1] (Vaccination DC (n = 3)) amounted to 2; in experiment [1] (Vaccination GV1001 (n = 4)), 3; in experiment [1] (setting [7]) it was 5.
In the case of AERLTSRVKALFSVL [p728], in experiment [3], the “Patients with immune response against the peptide / UV1 mix” value (“Patients … against the peptide / UV1 mix” below) amounted to 24%, the “Number of patients that recognised this one peptide only” value (from here on “Number”) is given as “one” and the “Responding patients / evaluable patients” value is “(12/51)”.
Turning to VTGAYDTIPQDRLTE [Conjugate 732], the “No. of positive patients” value in experiment [1] worked out at 1. For the same substance, the “T-cell responses … for SEQ ID NO: 118” value in experiment [1] (Vaccination GV1001 (n = 4)) and in experiment [1] (setting [7]) was 1 throughout.
As to ARWWWMHHNMDLIGGAKxVAAWTLKAu [HY-PADRE], the “Anti-MTTE IgG1 antibody titres (ELISA)” value in the experiment on C57BL/6 mice is “no antibodies to the MTTE sequence”.
As for EAEVRQHREARPALL [Conjugate 713], the “No. of positive patients” value in experiment [1] came to 4. Moreover, the “T-cell responses … for SEQ ID NO: 116” value in experiment [1] (Vaccination DC (n = 3)) stood at 1; in experiment [1] (Vaccination GV1001 (n = 4)), 3; in experiment [1] (setting [7]), 4.
Regarding LKRVQLRELSEAEVRQ [Conjugate 731], in experiment [1], the “No. of positive patients” value is recorded as 1. Further, the “T-cell responses … for SEQ ID NO: 116” value in experiment [1] (Vaccination GV1001 (n = 4)) and in experiment [1] (setting [7]) was 1 each time.
In the case of “EARPALLTSRLRFIPK [GV1001, reference compound]”, the “SUM of T-cell responses to peptides embedded in the polypeptide” value in experiment [1] (Vaccination DC (n = 3)) was 5; in experiment [1] (Vaccination GV1001 (n = 4)), 7; in experiment [1] (setting [7]) it was 12. In addition, the “Immunogenicity in HLA-A2/DR1 transgenic mice (conclusion)” value in experiment [4] (16.4 nmol peptide with standard adjuvant) is “marginal immune responses”. Besides, the “Peptides above the threshold (T cell responses against individual peptides)” value in experiment [4] (16.4 nmol peptide, female HLA-A2/DR1 mice (n=4), cut off = cells alone) is recorded as “UV 57”. For the same substance, in experiment [4] (16.4 nmol, mice M9-M12 GV1001 group, M13-M16 UV34 group), the “Peptide recognition by individual vaccinated mice (ELISpot)” value was “M9 and 12 did not respond to any of the tested peptides; also recorded: M11 demonstrated a marginal immune response against UV57”. In addition, the “Vaccinated individuals with induced immune responses” value with vaccinated individuals was “at least 50%”.
For “ALFSVLNYERARRPGLLGASVLGLDDIHRA [p719-20]”, the “Patients … against the peptide / UV1 mix” value in experiment [3] and in experiment [3] (listed as SEQ ID NO. 1) was 65% each time. Also, the “Percentage of patients carrying the allele who responded to SEQ ID NO. 1” value in experiment [3] (HLA-DPB1*01:01) is reported as 14%; in experiment [3] (HLA-DPB1*04:01), 64%; in experiment [3] (HLA-DPB1*04:02), 71%; in experiment [3] (HLA-DQB1*03:02) it was 46%; in experiment [3] (HLA-DQB1*05:01) it was 67%; in experiment [3] (HLA-DQB1*06:02), 72%. The results for the “Percentage of patients carrying the allele who responded to SEQ ID NO. 1” value in experiment [3] (HLA-DRB1*04:01), in experiment [3] (HLA-DRB1*07:01) and in experiment [3] (HLA-DRB1*15:01) were 50%, 90% and 89%, respectively. Also, the “Responders in 7 of the 9 most common HLA class II haplotypes” value in experiment [3] (UV1-vaccinated patients) is recorded as > 50%. Besides, the “Number” value in experiment [3] is on record as 13. Also, the “Responding patients / evaluable patients” value in experiment [3] is on record as “(33/51)”. Moreover, in experiment [2], the “HLA Class II allele” value is “All clones”. Also, in experiment [5] (22 nmol dose), the Responding mice entry was “all mice appear to respond”. Also, in experiment [5] (30 μg (9 nmol) with CpG 1826 25 μg in IFA, prime boost, n=8), the “IFN-γ ELISpot spots on restimulation with SEQ ID NO: 1” value is “significant increase in the number of spots compared to cells alone”. Besides, the “GFP-expressing T-cells specific for SEQ ID NO: 1 (T-cell activation)” value in experiment [6] is “activate the T cells equally well”.
For the substance “LNYERARRPGLLGD (LNYERARRPGLLGA; listed as Homo sapiens) [SEQ ID NO: 17]”, the “HLA Class II allele” value in experiment [2] was “p5-clone109”.
As for “FSVLNYERARRPGL (listed as Homo sapiens) [SEQ ID NO: 14]”, the “HLA Class II allele” value in experiment [2] is on record as “p5-clone 109”.
In the case of PQDRLTEVIASIIKP [Conjugate 723], the “No. of positive patients” value in experiment [1] worked out at 1. Also, the “T-cell responses … for SEQ ID NO: 118” value in experiment [1] (Vaccination DC (n = 3)) and in experiment [1] (setting [7]) was 1 each time.
Take “LLGASVLGLDDIHR (listed as Homo sapiens) [SEQ ID NO: 27]”: in experiment [2], the “HLA Class II allele” value was “DQ2, clone 52”.
On to “SVLNYERARRPGLL (listed as Homo sapiens) [SEQ ID NO: 15]”, for which, in experiment [2], the “HLA Class II allele” value is on record as “DR7, clone 4, 12, 21, 15, 92,; also recorded: p5-clone109”.
For FIPKPDGLRPIVNMD [Conjugate 715], the “No. of positive patients” value in experiment [1] is listed as 3. In addition, the “T-cell responses … for SEQ ID NO: 116” value stood at 2 in experiment [1] (Vaccination DC (n = 3)), 1 in experiment [1] (Vaccination GV1001 (n = 4)) and 3 in experiment [1] (setting [7]).
As to “YERARRPGLLGASV (listed as Homo sapiens) [SEQ ID NO: 19]”, the “HLA Class II allele” value in experiment [2] is reported as “DQ7, clone 8”.
As to “RARRPGLLGASVLG (listed as Homo sapiens) [SEQ ID NO: 21]”, the “HLA Class II allele” value in experiment [2] is “DQ7, clone 8,10”.
As for RTFVLRVRAQDPPPE [p725], in experiment [3], the “Patients … against the peptide / UV1 mix” value is given as 39%, the “Number” value is on record as “one” and the “Responding patients / evaluable patients” value is reported as “(20/51)”.
With “GLLGASVLGLDDIH (listed as Homo sapiens) [SEQ ID NO: 26]”, the “HLA Class II allele” value in experiment [2] is “DQ2, clone 52”.
On the same count and under the same terms, the entry for “LESVLNYERARRPG (LFSVLNYERARRPG; listed as Homo sapiens) [SEQ ID NO: 13]” is “p5-clone109”; for “PGLLGASVLGLDDI (listed as Homo sapiens) [SEQ ID NO: 25]” it is “DQ2, clone 52”.
